We go through 2 compounds from patent US6878253B2, “Chiral separation of benzoporphyrin derivative mono-and di-acids by laser-induced fluorescence capillary electrophoresis” (The University of British Columbia, priority 1998, dated 2005).

The nature of series [1]: Extinction coefficient determination in borate/cholate buffer. The series is classed as physicochemical. The following applies: 430 nm; 300 mM borate, 10% acetonitrile, 25 mM sodium cholate, pH 9.2. The text has this:
The compounds have the same chromophore and identical absorption spectra (FIG. 3a) with a characteristic major broad peak in the Soret region (420 nm) and several other peaks at longer wavelengths. The most interesting long wavelength peak, in terms of applications in PDT, is the peak at 688 nm (in organic solvents). […] An emission spectrum is also shown in FIG. 3b with a characteristic emission at about 692 nm, near red (Q-band), with a Stokes shift of ˜4 nm for fluorescence. […] As such, there is no gain in photo absorption by use of any particular BPD enantiomer.

A short description of series [2]: Decomposition (hydrolysis) in electrophoresis buffers. Format: physicochemical. The following applies: in one hour at pH 9.2. The protocol: Separation by CE is also affected by the buffering system used. Buffer type, concentration, ionic strength, and pH are all parameters to consider, and a variety of buffers may be used. Buffer solutions of pH 11.04, 100 mM 3-(cyclohexylamino)-1-propanesulfonic acid (CAPS); pH 6.76, 30 mM ammonium acetate; pH 2.76, 50 mM citric acid; and pH 9.2, 100 mM borate were tested as electrolytes. […] This was followed by either separation shut down or excess spiking and signal noise. In citric acid buffer the BPD enantiomers were protonated at the propionic side chain, defeating separation based on the deprotonated state. Since the effective charge(s) are the same for BPD-DA and BPD-MA, the electrophoretic mobility difference is normally very small. Also, at […], the EOF was very small and this caused the migration time to become overly long. The result was very poor signal separation due to extensive diffusion.
With borate buffer at about pH 9.2, however, the BPD-DA and BPD-MA enantiomers were completely separated. This, in combination with the ability of borate to form a very stable buffer solution with high buffering capacity and its ability to be used in very high concentrations, made it a preferred choice for use in the instant separation methods. Borate has also been used in other separation systems (Consden et al. (1952); Boeseken (1949); and Landers et al. (1992)). […]

A further series relates to skin. The following applies: versus Photofrin (Richter et al. (1987)); cited from earlier work.

As to `C=Cc1c(C)c2cc3nc(cc4[nH]c(cc5nc(cc1[nH]2)C(C)=C5CCC(=O)O)c(CCC(=O)O)c4C)[C@@]1(C)C3=CC=C(C(=O)OC)[C@H]1C(=O)OC` [BPD-DA, benzoporphyrin derivative diacid], in series [1], the Extinction coefficient was 75,200 M^−1 cm^−1.
In the case of “benzoporphyrin derivative monoacid ring A [BPD-MA]”, the decomposition entry in series [2] is given as “less than 1%”. For the same compound, the Extinction coefficient in series [1] is reported as 61,000 M^−1 cm^−1. Further, the skin phototoxicity result with skin is “lower skin phototoxicity than Photofrin”.
